The values below come from PubChem BioAssay (NCI).

Test systems include SNB-75 CNS; KM12 colon; SN12C renal; HCC-2998 colon; NCI-H522 lung; SR leukemia; NCI-H23 lung; DU-145 prostate; MDA-MB-231 breast; HCT-15 colon; SNB-19 CNS; MDA-MB-435.
What all share (assay): NCI anticancer screen, dose series, 48 h

Values joined by “and” are separate entries in the source; they are usually repeats but may differ in a detail not shown here. Identical values can stand only once.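 In this assay, cells in 96-well plates receive the compound at five concentrations for 48 hours. Endpoints are linearly interpolated between the surrounding concentrations. GI50 = concentration required for 50% inhibition of growth. TGI marks complete inhibition of growth.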 Bounds are passed on as bounds.

For `COc1ccc(-c2c(C#N)c(S)n(C3OC(COC(C)=O)C(OC(C)=O)C(OC(C)=O)C3OC(C)=O)c(=O)c2C#N)cc1` (configuration not stated), the TGI with SNB-75 CNS is 60.6 µM and 89 µM; in the experiment on KM12 colon it was above 100 µM; with SN12C renal it was above 100 µM; with HCC-2998 colon, 98.9 µM and 64.6 µM; in the experiment with NCI-H522 lung it was > 100 µM and 65.4 µM; with SR leukemia, > 100 µM and 59.3 µM. The TGI was above 100 µM in the experiment with NCI-H23 lung; above 100 µM with DU-145 prostate; 83.5 µM and > 100 µM in the experiment with MDA-MB-231 breast; above 100 µM in the experiment with HCT-15 colon; above 100 µM in the experiment with SNB-19 CNS; > 100 µM and 50.6 µM in the experiment with MDA-MB-435. For the same molecule, the GI50 in the experiment with NCI-H522 lung was 88.4 µM and 29.7 µM; with SR leukemia, 3.43 µM and 17.9 µM; in the experiment with MDA-MB-231 breast, 21.7 µM and 55 µM; in the experiment with SNB-19 CNS it was 34.1 µM and 75.3 µM; in the experiment on MDA-MB-435, 56.9 µM and 21.3 µM.

As to `C=CC(=O)c1ccc2c(c1)OCCOCCOCCOCCOCCO2`, the TGI was above 91.6 µM in the experiment on SNB-75 CNS; above 100 µM in the experiment with KM12 colon; 52.8 µM with SN12C renal; above 100 µM with HCC-2998 colon; 24.7 µM in the experiment on NCI-H522 lung; above 100 µM in the experiment on SR leukemia. Moreover, the TGI in the experiment on NCI-H23 lung was above 64.2 µM; with DU-145 prostate, above 100 µM; in the experiment with MDA-MB-231 breast, 36 µM; in the experiment with HCT-15 colon, 39.2 µM; in the experiment on SNB-19 CNS it was above 100 µM; in the experiment on MDA-MB-435 it was 43.2 µM.

For the molecule `CCOC(=O)c1cc(C2(O)CCN(Cc3ccccc3)C2=O)c(-c2cc(C)no2)[nH]1` (configuration not stated), the TGI is 85.8 µM with SNB-75 CNS; above 100 µM in the experiment with KM12 colon; above 100 µM in the experiment with SN12C renal; above 100 µM in the experiment with HCC-2998 colon; 43.3 µM in the experiment with NCI-H522 lung; above 100 µM in the experiment with SR leukemia. For the same molecule, the TGI with NCI-H23 lung, with DU-145 prostate, in the experiment with MDA-MB-231 breast, in the experiment with HCT-15 colon, in the experiment on SNB-19 CNS and in the experiment on MDA-MB-435 was above 100 µM in each case.

Turning to `Cc1cc2c(c(C(=O)NCCC(=O)O)c1)Oc1c(cc(C)cc1C(=O)NCCC(=O)O)S2`, the TGI in the experiment with SNB-75 CNS, with KM12 colon, in the experiment with SN12C renal, in the experiment with HCC-2998 colon, with NCI-H522 lung and in the experiment on SR leukemia was above 100 µM in each case. The TGI in the experiment on NCI-H23 lung, in the experiment with DU-145 prostate, in the experiment with MDA-MB-231 breast, with HCT-15 colon, with SNB-19 CNS and in the experiment with MDA-MB-435 was above 100 µM throughout.

As for `CCOP(=O)(OCC)[C@H](O)c1ccsc1`, the TGI in the experiment with SNB-75 CNS, in the experiment on KM12 colon, with SN12C renal, in the experiment with HCC-2998 colon, with NCI-H522 lung and with SR leukemia was above 100 µM each time. The TGI in the experiment with NCI-H23 lung, in the experiment on DU-145 prostate, in the experiment on MDA-MB-231 breast, in the experiment with HCT-15 colon, with SNB-19 CNS and in the experiment on MDA-MB-435 was above 100 µM in each case.

Consider `Cc1ccc(S(=O)(=O)N2CCN3C(=O)c4ccccc4C32c2ccc(F)cc2)cc1` (configuration not stated), for which the TGI was above 100 µM in the experiment with SNB-75 CNS; above 100 µM with KM12 colon; above 100 µM with SN12C renal; above 100 µM in the experiment on HCC-2998 colon; above 100 µM in the experiment with NCI-H522 lung; 52.8 µM in the experiment on SR leukemia. In addition, the TGI in the experiment on NCI-H23 lung, in the experiment with DU-145 prostate, with MDA-MB-231 breast, in the experiment on HCT-15 colon, in the experiment on SNB-19 CNS and in the experiment on MDA-MB-435 was above 100 µM each time.

As to `C[C@]12OC[C@H](c3ccccc3)N1C(=O)C1[C@H]2CC12SCCS2` (some centres not stated), the TGI in the experiment on SNB-75 CNS, in the experiment on KM12 colon, in the experiment with SN12C renal, with HCC-2998 colon, with NCI-H522 lung and with SR leukemia was above 100 µM in each case. Moreover, the TGI with NCI-H23 lung, in the experiment on DU-145 prostate, in the experiment with MDA-MB-231 breast, with HCT-15 colon, in the experiment with SNB-19 CNS and with MDA-MB-435 was above 100 µM in each case.

`O=c1[nH]c2nc3ccccc3c(=O)n2/c1=C/c1ccc(O)cc1`: the TGI was above 100 µM with SNB-75 CNS; above 100 µM in the experiment with KM12 colon; above 100 µM with SN12C renal; 69.9 µM in the experiment on HCC-2998 colon; above 100 µM in the experiment on NCI-H522 lung; above 100 µM with SR leukemia. For the same molecule, the TGI with NCI-H23 lung is above 100 µM; with DU-145 prostate it was above 100 µM; in the experiment on MDA-MB-231 breast, above 100 µM; with HCT-15 colon it was above 100 µM; with SNB-19 CNS, 51.3 µM; in the experiment on MDA-MB-435, 69.8 µM.

Take `O=c1c2ccccc2[nH]c(=S)n1-c1ccc(N=Nc2cccc3c(O)cccc23)cc1`: the TGI with SNB-75 CNS, in the experiment with KM12 colon, in the experiment on SN12C renal, with HCC-2998 colon, in the experiment on NCI-H522 lung and with SR leukemia was above 100 µM throughout. Further, the TGI is above 100 µM in the experiment on NCI-H23 lung; above 100 µM in the experiment on DU-145 prostate; above 100 µM with MDA-MB-231 breast; above 100 µM in the experiment on HCT-15 colon; above 100 µM in the experiment with SNB-19 CNS; 68.9 µM in the experiment on MDA-MB-435.

As for `Cc1cc(-c2nc3ccccc3s2)ccc1NS(=O)(=O)O`, the TGI in the experiment with SNB-75 CNS was above 100 µM; in the experiment on KM12 colon, above 55.4 µM; in the experiment with SN12C renal it was above 100 µM; with HCC-2998 colon, above 100 µM; in the experiment on NCI-H522 lung, above 67.3 µM; in the experiment on SR leukemia, above 100 µM. The TGI with NCI-H23 lung, in the experiment on DU-145 prostate, in the experiment with MDA-MB-231 breast, in the experiment with HCT-15 colon, in the experiment on SNB-19 CNS and in the experiment on MDA-MB-435 was above 100 µM each time.

For `c1cc2nnc1SCCSCCSc1ccc(nn1)SCCSCCS2`, the TGI in the experiment with SNB-75 CNS is 77.3 µM; in the experiment on KM12 colon, above 100 µM; with SN12C renal, above 100 µM; in the experiment on HCC-2998 colon, above 100 µM; in the experiment with NCI-H522 lung, above 100 µM; with SR leukemia, above 100 µM. Moreover, the TGI with NCI-H23 lung, in the experiment on DU-145 prostate, in the experiment with MDA-MB-231 breast, in the experiment with HCT-15 colon, in the experiment on SNB-19 CNS and with MDA-MB-435 was above 100 µM in each case.
